In US20130281420A1, “Ophthalmic Formulations of Squalamine” (Ohr Pharmaceutical, Inc., priority 2010, published 2013):
Where a name gives a salt, the structure may show the parent alone. Read-outs that look alike come from different tables or passages of the source.

What was measured:
[1] = Ocular biodistribution study following ocular administration; assay type: in vivo, Dutch-Belted rabbits; details: formulation G, 0.08 mg/eye once; for concentration at 15 min / concentration at 30 min / concentration at 3 h: male, Dutch-Belted, rabbit, posterior sclera and choroid, other: ocular administration, 0.08 mg/eye
Description: The objective of this study was to determine the ocular biodistribution of squalamine lactate formulation G (see composition above) when given once by ocular administration to male Dutch-Belted rabbits.
The study design was as follows:
Body weight measurements were taken for randomization/dose calculation purposes. […] Following dose administration, blood samples were collected at specified time points and plasma was prepared. After blood sample collection, the animals were euthanized and a necropsy was performed to collect the following ocular tissues: aqueous humor, vitreous humor, sensory retina and choroid/sclera.

[2] = system: human vascular endothelial cells (HUVEC); assay: Inhibition of VEGF induced tube formation by HUVEC; assay type: cell-based; details: 50 nM (tested at 50, 100, 200 nM), 24 hrs, Matrigel with VEGF
Description: Squalamine lactate was mixed in solution at 50, 100 or 200 nM concentration with a suspension of human vascular endothelial cells (HUVEC). The suspension was then immediately plated on Matrigel which contained multiple growth factors including vascular endothelial cell growth factor (VEGF). The plates were incubated at 37° C. in an atmosphere of […] for 24 hrs and then the plates were photographed.

AMD = details: cited from earlier work
[3] = any animals (15 min, 30 min, 3 hrs)
[4] = mean of eyes, read-out: Squalamine in posterior sclera and choroid, Mean

SMILES: CC(C)[C@@H](CC[C@@H](C)[C@H]1CC[C@H]2[C@@H]3[C@H](O)C[C@H]4C[C@@H](NCCCNCCCCN)CC[C@]4(C)[C@H]3CC[C@]12C)OS(=O)(=O)O [Squalamine, ([6-[(3S,5R,7R,10S,13R,145)-3-[3-(4-aminobutylamino)propylamino]-7-hydroxy-10,13-dimethyl-2,3,4,5,6,7,8,9,11,12,14,15,16,17-tetradecahydro-1H-cyclopenta[a]phenanthren-17-yl]-2-methylheptan-3-yl]hydrogen sulfate)]
- Squalamine in posterior sclera and choroid ([1]; 30 min, An#105 left eye): BQL
- Level of squalamine in aqueous humor [1, 3]: No quantifiable levels
- Level of squalamine in vitreous humor [1, 3]: No quantifiable levels
- concentration at 15 min ([1]; An#101 left eye, read-out: Squalamine in posterior sclera and choroid): 101 ng/g
- concentration at 15 min ([1]; An#101 right eye, read-out: Squalamine in posterior sclera and choroid): 26.6 ng/g
- concentration at 15 min ([1]; An#102 left eye, read-out: Squalamine in posterior sclera and choroid): 44.2 ng/g
- concentration at 15 min ([1]; An#102 right eye, read-out: Squalamine in posterior sclera and choroid): 145 ng/g
- concentration at 15 min ([1]; An#103 left eye, read-out: Squalamine in posterior sclera and choroid): 195 ng/g
- concentration at 15 min ([1]; An#103 right eye, read-out: Squalamine in posterior sclera and choroid): 31.7 ng/g
- concentration at 15 min [1, 4]: 90.6 ng/g
- concentration at 30 min ([1]; 30 min, An#104 left eye, read-out: Squalamine in posterior sclera and choroid): 54.4 ng/g
- concentration at 30 min ([1]; 30 min, An#104 right eye, read-out: Squalamine in posterior sclera and choroid): 121 ng/g
- concentration at 30 min ([1]; 30 min, An#105 right eye, read-out: Squalamine in posterior sclera and choroid): 78.9 ng/g
- concentration at 30 min ([1]; 30 min, An#106 left eye, read-out: Squalamine in posterior sclera and choroid): 96.7 ng/g
- concentration at 30 min ([1]; 30 min, An#106 right eye, read-out: Squalamine in posterior sclera and choroid): 94.1 ng/g
- concentration at 30 min ([1]; 30 min, mean of eyes, read-out: Squalamine in posterior sclera and choroid, Mean): 89 ng/g
- concentration at 3 h ([1]; An#107 left eye, read-out: Squalamine in posterior sclera and choroid): 23.9 ng/g
- concentration at 3 h ([1]; An#107 right eye, read-out: Squalamine in posterior sclera and choroid): 149 ng/g
- concentration at 3 h ([1]; An#108 left eye, read-out: Squalamine in posterior sclera and choroid): 26 ng/g
- concentration at 3 h ([1]; An#108 right eye, read-out: Squalamine in posterior sclera and choroid): 34.6 ng/g
- concentration at 3 h ([1]; An#109 left eye, read-out: Squalamine in posterior sclera and choroid): 71.8 ng/g
- concentration at 3 h ([1]; An#109 right eye, read-out: Squalamine in posterior sclera and choroid): 51.1 ng/g
- concentration at 3 h [1, 4]: 59.4 ng/g
- HUVEC tube formation on Matrigel [2]: disrupts tube formation
- visual acuity (AMD; IV infusion, after the first four to five weeks of administration): good gains in visual acuity
- plasma half-life (AMD; human subjects, 40 mg dose, intravenous infusion): short
- adverse reactions of intravenous dosing (AMD; intravenous dosing, human): local infusion-site reactions
